Data as given in paper PMC10327353 (Breast Cancer Research : BCR, 2023).

Columns and labels:
[1] = biological target: HER2 (Homo sapiens, UniProt P04626); assay: pHER2 MSD assay in BT474C1 cells; type: cell-based; parameters: endogenous in cells; host or cells: BT474C1-Luci Mono1 (BT474 transfected with luciferase only); settings: BT474C1, 4 hrs treatment
Description: A431 and BT474C1-Luci Mono1 cells were seeded in 96-well plates at 20,000 cells/well in DMEM medium containing 1% FBS. After overnight incubation, all cells were treated with compounds at a series of concentrations for 4 hrs. For A431 cell line, an extra stimulation with recombinant human EGF (100 ng/ml for 10 minutes) is applied to activate wild-type EGFR following compound treatment. pEGFR^Y1068 and total EGFR levels were measured by an electro chemiluminescent method (MULTI-SPOT®96 4-Spot HB Prototype EGFR Triplex […]: pEGFR (Y1068), Total EGFR; MESO SCALE DISCOVERY, Cat# N45ZB-1) with MSD SECTOR® Imager, which outputs the ratio of pEGFR/total EGFR for each well. pHER2^Y1248 and total HER2 levels were measured similarly using pHER2 (Y1248) Assay Whole Cell Lysate Kit (MESO SCALE DISCOVERY, Cat# K151CLD-3). The percentage of inhibition was calculated as: % Inhibition = 100 x [1 - (ratio of the sample well - ratio of Min ctrl well)/ (ratio of Max ctrl well - ratio of Min ctrl well)].

[2] = biological target: potassium ion-channel hERG (Homo sapiens, UniProt Q12809); assay: hERG in vitro safety pharmacology; type: biochemical
potassium ion-channel hERG, sequence (Q12809 whole entry): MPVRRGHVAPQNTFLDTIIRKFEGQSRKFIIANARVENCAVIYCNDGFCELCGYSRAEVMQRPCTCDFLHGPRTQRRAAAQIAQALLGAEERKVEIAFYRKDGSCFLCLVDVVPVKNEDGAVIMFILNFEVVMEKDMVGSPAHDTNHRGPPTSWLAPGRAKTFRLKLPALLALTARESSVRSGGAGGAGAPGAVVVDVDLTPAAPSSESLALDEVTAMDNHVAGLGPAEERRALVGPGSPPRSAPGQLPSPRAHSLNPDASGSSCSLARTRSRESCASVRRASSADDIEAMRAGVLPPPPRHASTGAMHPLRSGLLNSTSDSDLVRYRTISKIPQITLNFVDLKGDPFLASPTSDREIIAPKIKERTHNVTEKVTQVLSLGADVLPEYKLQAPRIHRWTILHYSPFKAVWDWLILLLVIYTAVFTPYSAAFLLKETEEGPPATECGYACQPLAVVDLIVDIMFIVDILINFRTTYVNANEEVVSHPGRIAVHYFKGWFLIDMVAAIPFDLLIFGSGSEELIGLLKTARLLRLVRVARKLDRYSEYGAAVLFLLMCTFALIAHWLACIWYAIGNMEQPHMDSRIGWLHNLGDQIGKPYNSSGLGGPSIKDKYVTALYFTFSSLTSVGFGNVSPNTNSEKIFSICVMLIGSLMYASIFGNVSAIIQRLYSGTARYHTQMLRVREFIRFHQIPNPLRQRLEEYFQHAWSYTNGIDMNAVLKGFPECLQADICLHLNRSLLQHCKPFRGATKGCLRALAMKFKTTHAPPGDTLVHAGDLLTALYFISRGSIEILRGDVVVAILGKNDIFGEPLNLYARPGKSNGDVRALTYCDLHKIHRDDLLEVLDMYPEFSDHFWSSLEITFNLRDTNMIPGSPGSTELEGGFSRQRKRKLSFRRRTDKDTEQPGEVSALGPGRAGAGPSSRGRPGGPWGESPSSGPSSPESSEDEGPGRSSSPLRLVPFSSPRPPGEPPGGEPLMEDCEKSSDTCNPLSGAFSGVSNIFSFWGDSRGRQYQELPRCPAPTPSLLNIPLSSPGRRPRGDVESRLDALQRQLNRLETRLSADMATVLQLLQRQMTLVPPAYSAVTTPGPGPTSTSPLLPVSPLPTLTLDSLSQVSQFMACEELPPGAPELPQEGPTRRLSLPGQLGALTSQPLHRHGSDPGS

HER2, sequence (P04626 23-1255): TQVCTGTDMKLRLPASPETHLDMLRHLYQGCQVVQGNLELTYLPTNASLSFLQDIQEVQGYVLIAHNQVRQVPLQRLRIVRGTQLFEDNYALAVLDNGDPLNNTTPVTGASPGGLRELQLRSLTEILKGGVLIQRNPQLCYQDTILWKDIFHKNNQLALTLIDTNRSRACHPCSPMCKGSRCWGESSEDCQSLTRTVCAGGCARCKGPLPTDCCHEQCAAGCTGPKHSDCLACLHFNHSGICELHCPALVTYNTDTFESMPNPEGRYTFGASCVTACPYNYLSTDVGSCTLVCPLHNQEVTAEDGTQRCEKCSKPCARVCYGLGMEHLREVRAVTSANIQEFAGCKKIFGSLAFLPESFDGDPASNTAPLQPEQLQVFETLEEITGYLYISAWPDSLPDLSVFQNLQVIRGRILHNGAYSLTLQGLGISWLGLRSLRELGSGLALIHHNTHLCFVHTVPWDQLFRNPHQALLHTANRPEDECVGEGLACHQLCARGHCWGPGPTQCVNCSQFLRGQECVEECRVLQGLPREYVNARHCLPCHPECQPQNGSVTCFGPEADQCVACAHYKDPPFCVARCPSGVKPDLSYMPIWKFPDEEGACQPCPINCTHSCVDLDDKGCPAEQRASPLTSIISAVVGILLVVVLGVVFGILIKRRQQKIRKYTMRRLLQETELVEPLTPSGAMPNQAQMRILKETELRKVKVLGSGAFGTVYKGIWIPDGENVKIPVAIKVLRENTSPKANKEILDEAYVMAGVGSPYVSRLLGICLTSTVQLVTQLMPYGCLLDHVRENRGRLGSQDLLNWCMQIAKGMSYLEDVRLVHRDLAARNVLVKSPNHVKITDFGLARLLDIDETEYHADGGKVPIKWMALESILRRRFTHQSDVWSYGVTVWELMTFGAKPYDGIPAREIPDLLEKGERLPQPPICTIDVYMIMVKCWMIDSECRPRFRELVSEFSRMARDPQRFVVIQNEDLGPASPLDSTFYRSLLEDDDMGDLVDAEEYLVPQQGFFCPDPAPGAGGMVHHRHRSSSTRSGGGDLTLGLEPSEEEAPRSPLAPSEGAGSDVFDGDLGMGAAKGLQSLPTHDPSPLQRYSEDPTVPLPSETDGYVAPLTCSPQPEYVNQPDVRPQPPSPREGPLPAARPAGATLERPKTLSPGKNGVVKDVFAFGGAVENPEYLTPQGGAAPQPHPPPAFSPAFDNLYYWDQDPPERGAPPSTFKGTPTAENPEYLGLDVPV

For COc1cc(O[C@H]2CCN(C)CC2(F)F)c2c(Nc3ccc(Oc4ccn5ncnc5c4)c(C)c3)ncnc2c1 [DZD1516], the IC50 [1] was 4.4 nM and the IC50 [2] was 3290 nM.
